Molecules are shown by their SMILES.

A short description of data set [1]: Inhibition of cell proliferation (MTT method), Vero cells. Format: cell-based. As to conditions: African green monkey, Vero cells (African green monkey kidney), concentration which inhibited cell growth by 50% vs control cultures, mean of three assays.
Data set [2] in a line: Inhibition of cell proliferation (MTT method), BS-C-1 cells. Format: cell-based. As to conditions: African green monkey, BS-C-1 cells (African green monkey kidney), concentration which inhibited cell growth by 50% vs control cultures, mean of three assays. For orientation: Formazan colour is commonly taken as a measure of viable cells.
Data set [3] in a line: Inhibition of cell proliferation (MTT method), MDCK cells. In kind it is cell-based. Particulars: dog, MDCK cells (Madin-Darby canine kidney), concentration which inhibited cell growth by 50% vs control cultures, mean of three assays.
Data set [4] relates to HEp-2 cells. In words: Inhibition of cell proliferation (MTT method), HEp-2 cells. Format: cell-based, human. As to conditions: concentration which inhibited cell growth by 50% vs control cultures, mean of three assays, read-out: CC50 HEp2.
Data set [5] is described as follows: Inhibition of cell proliferation (MTT method), HFF cells. Format: cell-based, human. Particulars: human, HFF cells (human foreskin fibroblasts), concentration which inhibited cell growth by 50% vs control cultures, mean of three assays.
Data set [6] deals with HFF cells. In words: Inhibition of cell proliferation (MTT method), HFF cells. In kind it is cell-based, human. Particulars: concentration which inhibited cell growth by 50% vs control cultures, mean of three assays.
Data set [7] can be described thus: Inhibition of cell proliferation (MTT method), HEp-2 cells. Format: cell-based, human. Particulars: human, HEp-2 cells (human epidermoid carcinoma larynx), concentration which inhibited cell growth by 50% vs control cultures, mean of three assays, read-out: CC50 HEp2.
For data set [8] the following is noted: statement in words; reference not given; cited from earlier work.
For data set [9] the following is noted: statement in words; reference not given; cited from earlier work. The source holds these as a separate data set.

The term CC50 denotes the concentration giving 50% cytotoxicity. As a reminder, the melting point is the temperature of the solid-liquid transition. Turning to `Cc1cn([C@@H]2C[C@H](Cn3cc(CCO)nn3)N(C)O2)c(=O)[nH]c1=O` [13a], the melting point lay in the range of 215 to 218 °C. Moreover, it took 10 µM to reach half-maximal cytotoxicity in data set [1] (CC50). For the same compound, in [2], the CC50 came to 10 µM. This compound had a CC50 in data set [3] of 10 µM. Moreover, the CC50 in data set [4] turned out to be 40 µM. The half-maximal cytotoxic concentration (CC50) in [5] stood at 10 µM.

For `Cc1cn([C@@H]2C[C@H](Cn3cc(CO)nn3)N(C)O2)c(=O)[nH]c1=O` [13b], the melting point was 205 to 210 °C. In addition, in data set [1], the CC50 is 40 µM. In data set [2], this compound came in with a CC50 of 30 µM. The compound also yielded a CC50 in [3] of 30 µM. Besides, the CC50 in data set [4] was 40 µM. In data set [5], this compound had a CC50 of 30 µM.

As for `CCCc1cn(C[C@H]2C[C@@H](n3cc(C)c(=O)[nH]c3=O)ON2C)nn1` [13c], the melting point lay in the range of 132 to 137 °C. This compound also returned a CC50 in data set [1] of 20 µM. Further, the CC50 in data set [2] is 20 µM. This compound yielded a cytotoxic concentration (CC50) in [3] of 20 µM. For the same compound, in data set [4], the CC50 was 40 µM. In addition, the midpoint of cytotoxicity in data set [6], the CC50, lay at 5 µM.

`Cc1cn([C@@H]2C[C@H](Cn3cc(-c4ccccc4)nn3)N(C)O2)c(=O)[nH]c1=O` [13d] returned a melting point of 268 to 272 °C. The compound further registered a 50% cytotoxic concentration (CC50) in [1] of 20 µM. In data set [2], this compound had a CC50 of 20 µM. The CC50 in data set [3] came out at 20 µM. The CC50 in data set [7] came to 20 µM. The same compound had a CC50 in data set [6] of 5 µM.

`COc1ccc(-c2cn(C[C@H]3C[C@@H](n4cc(C)c(=O)[nH]c4=O)ON3C)nn2)cc1` [13e] showed a melting point of 215 to 218 °C. In data set [1], it took 20 µM to reach half-maximal cytotoxicity (CC50). Also, the cytotoxic concentration (CC50) in data set [2] worked out at 20 µM. This compound also came in with a CC50 in data set [3] of 20 µM. Also, the CC50 in data set [4] was determined as 40 µM. This compound also displayed a CC50 in [6] of 5 µM.

Take `Cc1cn([C@@H]2C[C@H](Cn3cc(-c4ccc(F)cc4)nn3)N(C)O2)c(=O)[nH]c1=O` [13f]: the melting point was 269 to 271 °C. The compound also displayed a half-maximal cytotoxic concentration (CC50) in data set [1] of 10 µM. Moreover, in [2], the CC50 came out at 10 µM. The compound also gave a CC50 in [3] of 10 µM. The CC50 in data set [4] came to 40 µM. This compound also yielded a CC50 in data set [5] of 40 µM.

The compound `CCCCCc1ccc(-c2cn(C[C@H]3C[C@@H](n4cc(C)c(=O)[nH]c4=O)ON3C)nn2)cc1` [13g] yielded a melting point of 259 to 260 °C. Besides, the CC50 in [1] is 10 µM. For the same compound, in data set [2], the midpoint of cytotoxicity, the CC50, lay at 10 µM. Besides, the midpoint of cytotoxicity in [3], the CC50, lay at 10 µM. Besides, in [7], the 50% cytotoxic concentration (CC50) came out at 20 µM. In [6], this compound displayed a CC50 of 5 µM.

The compound `Cc1cn([C@H]2C[C@H](Cn3cc(CCO)nn3)N(C)O2)c(=O)[nH]c1=O` [14a] yielded a melting point of 202 to 206 °C. Besides, it took 20 µM to reach half-maximal cytotoxicity in data set [1] (CC50). Besides, in [2], the CC50 turned out to be 20 µM. The same compound returned a CC50 in [3] of 20 µM. The CC50 in [4] was 40 µM. Also, the midpoint of cytotoxicity in data set [5], the CC50, lay at 20 µM.

Turning to `Cc1cn([C@H]2C[C@H](Cn3cc(CO)nn3)N(C)O2)c(=O)[nH]c1=O` [14b], the melting point was 198 to 201 °C. The CC50 in data set [1] was found to be 20 µM. For the same compound, in data set [2], the CC50 was 10 µM. Further, in [3], the CC50 is 20 µM. Further, the CC50 in [4] is 40 µM. Moreover, in data set [5], the CC50 was 20 µM.

On to `CCCc1cn(C[C@H]2C[C@H](n3cc(C)c(=O)[nH]c3=O)ON2C)nn1` [14c], for which the melting point was in the range of 168 to 170 °C. The compound also came in with a CC50 in [1] of 20 µM. Also, the CC50 in data set [2] came out at 20 µM. The compound further yielded a CC50 in data set [3] of 20 µM. Also, the CC50 in [4] is 40 µM. In [6], the CC50 turned out to be 5 µM.

Turning to `Cc1cn([C@H]2C[C@H](Cn3cc(-c4ccccc4)nn3)N(C)O2)c(=O)[nH]c1=O` [14d], the melting point fell in the range of 233 to 235 °C. The half-maximal cytotoxic concentration (CC50) in [1] was determined as 5 µM. In [2], this compound came in with a CC50 of 5 µM. In [3], this compound came in with a CC50 of 5 µM. Besides, in [7], the CC50 turned out to be 5 µM. Besides, the CC50 in data set [6] was determined as 5 µM.

In the case of `COc1ccc(-c2cn(C[C@H]3C[C@H](n4cc(C)c(=O)[nH]c4=O)ON3C)nn2)cc1` [14e], the melting point was in the range of 202 to 205 °C. Also, half-maximal cytotoxicity in [1] (CC50) was put at 20 µM. In addition, it took 20 µM to reach half-maximal cytotoxicity in data set [2] (CC50). The CC50 in data set [3] came out at 20 µM. The CC50 in data set [4] was determined as 40 µM. Moreover, in data set [6], the CC50 is 5 µM.

For the compound `Cc1cn([C@H]2C[C@H](Cn3cc(-c4ccc(F)cc4)nn3)N(C)O2)c(=O)[nH]c1=O` [14f], the melting point lay within 230 to 233 °C. Besides, the CC50 in [1] was 20 µM. Besides, the CC50 in data set [2] worked out at 20 µM. In [3], this compound gave a CC50 of 20 µM. Moreover, the CC50 in data set [4] turned out to be 40 µM. The compound further had a CC50 in data set [6] of 5 µM.

`CCCCCc1ccc(-c2cn(C[C@H]3C[C@H](n4cc(C)c(=O)[nH]c4=O)ON3C)nn2)cc1` [14g] registered a melting point of 245 to 248 °C. Also, the CC50 in data set [1] was found to be 10 µM. It took 10 µM to reach half-maximal cytotoxicity in [2] (CC50). The CC50 in data set [3] amounted to 10 µM. Also, the CC50 in data set [7] was determined as 20 µM. In data set [6], the CC50 was determined as 5 µM.

Turning to `Cc1cn([C@@H]2C[C@H](CO)N(C)O2)c(=O)[nH]c1=O` [compound 8, (3′RS,5′SR)-2′-N-methyl-3′-hydroxymethyl-1′,2′-isoxazolidin-5′-ylthymine], the cytotoxicity entry in data set [8] is on record as “do not show any cytotoxicity”. Besides, the antiviral activity entry in [9] is reported as “endowed with antiviral activity”.

The values above are taken from article PMC4362054, “C-5’-Triazolyl-2’-oxa-3’-aza-4’a-carbanucleosides: Synthesis and biological evaluation” (Beilstein Journal of Organic Chemistry, 2015).
